Assays:
[1] = tested on: NFS/sld female mice (thymic gland extracted on the 3rd day after birth; Sjögren's syndrome model); assay: Laesio score by tissue findings of target organs in model mouse of Sjögren's syndrome (standard of White and Casarett); type: in vivo; conditions: 5 μg/kg/day s.c., 3 to 8 week age
Description: (§1) NFS/sld female mice of which thymic gland have been extracted on the 3rd day after the birth have Sjögren's syndrome after 4 weeks (Journal of Immunology, 153, 2769 (1994)). The compound represented by formula (la) of the present invention was subcutaneously administered once per day (5 μg/kg/day) to the mice from 3 week age to 8 week age which were immediately before histologic grand disorder was observed. The experiment was carried out for 3 non-administered groups (pathologic control) and 5 administered groups. In the 8th week, a stimulating agent (0.5 mg/kg pilocarpine hydrochloride) was intraperitoneally administered, and an amount of salivary gland liquid and an amount of lacrimal gland liquid were measured and evaluation was carried out by tissue findings.
The score is improved at a factor of ⅓ to ½ in each gland. The score was obtained based on the standard of White and Casarett (Journal of Immunology, 112, 178 (1974)).

[2] = tested on: NFS/sld female mice (thymic gland extracted on the 3rd day after birth; Sjögren's syndrome model); assay: Gland liquid secretion after pilocarpine stimulation in model mouse of naturally crisis Sjögren's syndrome; type: in vivo; conditions: 5 μg/kg/day s.c. once per day from 3 to 8 week age; 8th week, 0.5 mg/kg pilocarpine hydrochloride i.p.; measured for 35 minutes at 5 minute intervals
Description: as §1
Tables 1 and 2 show amounts of gland liquids (salivary gland secretory liquid and lacrimal gland secretory liquid) as cumulative rates (AUC) which measured for 35 minutes at the interval of 5 minutes after the administration of the stimulating agent.

[3] = Toxicity: maximum tolerated dose with an intravenous injection; conditions: mouse, in vivo, mice
Description: The toxicity of the compound represented by formula (I), (IA) or (Ia) of the present invention is very low and it was confirmed that it is sufficiently safe as a medicament. For example, a maximum tolerated dose with an intravenous injection using the compound represented by formula (Ia) of the present invention is 30 mg/kg in mice.

## C[C@H]1CC(=N)N[C@@H]2[C@H](Cl)[C@@H]21 [formula (Ia), (+)-trans-3-imino-5-methyl-7-chloro-2-azabicyclo[4.1.0]heptane]
[1]; each gland, score by standard of White and Casarett
  laesio score improved at a factor of (versus non-administered group): ⅓ to ½
[1]; submaxillary salivary gland, sublingual gland, parotid gland, lacrimal gland, FIG. 1
  inhibition effect on laesio for each target organ: significant inhibition effects on laesio
[2]
  Lacrimal gland secretory liquid after administration of stimulating agent AUC0-35 minutes: 0.798 mm/animal weight (g)
  Salivary gland secretory liquid after administration of stimulating agent AUC0-35 minutes: 15.8 μl/animal weight (g)
[3]
  MTD: 30 mg/kg
